Here are results for one compound from US20040074272A1, “Controlled release urea product and method of preparing said product” (priority 2001, published 2004).

The nature of data set [1]: in vitro solubility assay of urea in water at 39° C. Format: physicochemical. The conditions noted are these: 50 mg urea in 50 ml water at 39° C. How it is done: The coating layers consisted of rosin only or a combination of primer and rosin. […] Fifty mg urea was incubated in 50 ml water at 39° C. Samples (1 ml) were taken after 1, 2, 4 and 7.5 h incubation. Urea concentration was estimated by spectrophotometry.

The nature of data set [2]: feeding trial in sheep fitted with rumen cannulae, rumen ammonia profile. Format: in vivo. How it is done: Samples consisted of prilled urea-cement matrix coated with a primer of the type oxychloride cement followed by 3 or 4 layers of rosin and calcium carbonate.
The experiment was carried out with sheep fitted with rumen cannulae. Sheep were fed on a control diet of 63% grass hay and 37% of unmollassed sugarbeet pulp. Control diet was then supplemented with 1.3% urea (or urea equivalent in the is form of a controlled-release product) and added directly into the rumen to avoid excess chewing, which is known to be more intense in sheep compared to cattle. Data from the feeding trials are described in Table 4 and FIG. 3.

Consider `NC(N)=O` [Urea, urea], for which the “Urea solubilized (%)” value was found to be 98.9% in data set [1] (incubation time 1 h), 100.1% in data set [1] (incubation time 2 h), 99.3% in data set [1] (incubation time 4 h) and 100.6% in data set [1] (incubation time 7.5 h). In addition, the Rumen ammonia is given as 8.8 mg N/100 ml in data set [2] (0 h after feeding, diet supplemented with 1.3% urea or urea equivalent, added directly into the rumen); 33.3 mg N/100 ml in data set [2] (1 h after feeding, 1.3% urea or urea equivalent into the rumen); 25.0 mg N/100 ml in data set [2] (2 h after feeding, 1.3% urea or urea equivalent into the rumen); 10.7 mg N/100 ml in data set [2] (4 h after feeding, 1.3% urea or urea equivalent into the rumen); 6.6 mg N/100 ml in data set [2] (8 h after feeding, 1.3% urea or urea equivalent into the rumen); 9.0 mg N/100 ml in data set [2] (12 h after feeding, 1.3% urea or urea equivalent into the rumen).
